We go through one compound from PMC3823594, “Conformational Changes Underlying Pore Dilation in the Cytoplasmic Domain of Mammalian Inward Rectifier K^+ Channels” (PLoS ONE, 2013).

Common to all, as to experiment: Two-electrode voltage clamp, ACh-dependent (m2R-dependent) K+ current activation
Holding throughout (format): cell-based
A general note: In two-electrode clamp one electrode senses voltage and the other passes current.

One experiment deals with T1, Kir3.2 M313S (Mus musculus, UniProt P48542, I313S).
T1 sequence (P48542 19-425 I313S): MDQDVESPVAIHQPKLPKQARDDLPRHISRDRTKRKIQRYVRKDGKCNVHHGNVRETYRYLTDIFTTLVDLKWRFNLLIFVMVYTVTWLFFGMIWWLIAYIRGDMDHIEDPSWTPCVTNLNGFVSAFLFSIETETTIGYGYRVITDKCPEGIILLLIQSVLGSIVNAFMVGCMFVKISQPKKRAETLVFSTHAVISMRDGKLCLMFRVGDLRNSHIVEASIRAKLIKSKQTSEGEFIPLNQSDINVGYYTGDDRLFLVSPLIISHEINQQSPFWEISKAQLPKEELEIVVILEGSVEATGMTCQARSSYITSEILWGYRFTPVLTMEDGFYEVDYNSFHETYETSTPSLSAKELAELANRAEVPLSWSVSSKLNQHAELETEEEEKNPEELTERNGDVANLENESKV
T1 sequence (P06199 1-466 partner): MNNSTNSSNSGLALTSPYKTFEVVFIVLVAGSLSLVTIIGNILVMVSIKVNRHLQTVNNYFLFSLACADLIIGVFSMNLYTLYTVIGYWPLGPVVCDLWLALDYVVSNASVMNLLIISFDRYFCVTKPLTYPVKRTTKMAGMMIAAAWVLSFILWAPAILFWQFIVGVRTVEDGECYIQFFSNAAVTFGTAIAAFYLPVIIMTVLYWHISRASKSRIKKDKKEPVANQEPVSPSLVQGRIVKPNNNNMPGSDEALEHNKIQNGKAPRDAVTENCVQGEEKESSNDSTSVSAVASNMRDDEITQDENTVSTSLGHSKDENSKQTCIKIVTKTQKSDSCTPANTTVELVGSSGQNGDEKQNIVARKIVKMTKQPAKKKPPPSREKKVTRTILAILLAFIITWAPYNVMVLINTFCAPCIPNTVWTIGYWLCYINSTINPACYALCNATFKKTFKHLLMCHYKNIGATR
Particulars: Kir3.2 M313S with porcine m2R in Xenopus oocytes; −120 mV; Hill equation fit. From the text: (§1) The mouse Kir3.2d isoform was subjected to functional analyses. The amino acid numbers correspond to the longest mouse Kir3.2 isoform. Point mutations were introduced using the QuikChange site-directed mutagenesis kit (Stratagene, La Jolla, CA), and the presence of the mutations was confirmed by direct DNA sequencing. The care of Xenopus laevis was in accordance with the guideline of the Institute of Experimental Animal Sciences, Osaka University. The protocol was approved by the Animal Experiment Committee of Osaka University. The frogs were deeply anesthetized by immersing in 0.2% tricaine methanesulfonate for 20 min at 18°C. A portion of an ovary lobe was surgically removed and incubated with collagenase to remove follicular cells. The oocytes were injected with the cRNAs of Kir3.2 and porcine m2-muscarinic receptor (m2R), and maintained in modified Barth’s solution at 18°C with daily solution changes. Electrophysiological studies were undertaken 48–72 h later at room temperature (20–25°C). Two-electrode voltage-clamp recordings from oocytes were performed using a GeneClamp 500B amplifier (Axon Instruments, Sunnyvale, CA). […] The bath solution contained 40 mM KCl, 50 mM NaCl, 3 mM MgCl2, 0.15 mM niflumic acid, and 5 mM HEPES-KOH (pH 7.4). The currents were recorded in the absence or presence of various concentrations of acetylcholine (ACh). Ba^2+ (3 mM) was added at the end of the recording to estimate the endogenous leak current. The data are expressed as mean values ± standard error of the mean. For the quantitative estimation of ACh-dependent current responses of the wild-type (WT) and mutant channels, the current amplitudes at the end of test pulses at each ACh concentration ([ACh]) were fitted using the following equation:
(§2) I=min+[(max−min)/(1+(EC50/[ACh])^nH)]
(§3) where I is the current amplitude measured at the [ACh], n H is the Hill coefficient, and EC50 is the concentration that induces 50% of the maximal response. […] The values of n H and EC50 were calculated using a non-linear least-squares best fit (SigmaPlot 9; Systat Software). Statistical analyses were performed by one-way ANOVA with post-hoc tests.

For another experiment, the target named is T2, Kir3.2 E236Q (Mus musculus, UniProt P48542, E236Q).
T2 sequence (P48542 19-425 E236Q): T1 sequence (P48542 19-425 I313S) with E218Q, S295I
T2 sequence (P06199 1-466 partner): T1 sequence (P06199 1-466 partner)
Particulars: Kir3.2 E236Q with porcine m2R in Xenopus oocytes; −120 mV; Hill equation fit.
Description: as §1, §2, §3

A further experiment addresses T3, Kir3.2 E236S (Mus musculus, UniProt P48542, E236S).
T3 sequence (P48542 19-425 E236S): T1 sequence (P48542 19-425 I313S) with E218S, S295I
T3 sequence (P06199 1-466 partner): T1 sequence (P06199 1-466 partner)
Particulars: Kir3.2 E236S with porcine m2R in Xenopus oocytes; −120 mV; Hill equation fit.
Description: as §1, §2, §3

Structures are written as SMILES. Changes are numbered by the printed parent chain.

The Hill coefficient is the slope factor of the fitted curve.

Turning to `CC(=O)OCC[N+](C)(C)C` [ACh, acetylcholine], the Hill coefficient at Kir3.2 M313S is 1.04 ± 0.05; on Kir3.2 E236Q it was 0.75 ± 0.02; on Kir3.2 E236S it was 0.86 ± 0.07.
